Reference: patent US20190071670A1, “Methods Of Treatment For Alpha-1 Antitrypsin Deficiency” (Arrowhead Pharmaceuticals, Inc., priority 2016, published 2019)

Tested on: hAAT
Test: Serum hAAT protein levels in PiZ mice (ELISA)
Format: in vivo, human (expressed in PiZ mice)
Settings: for Serum hAAT levels reduced: 6 month old female PiZ mice, single IV 8 mg/kg + 8 mg/kg MLP delivery polymer; for Serum hAAT normalized to Day 1 and control / Normalized serum hAAT levels: PiZ mice; for Normalized serum hAAT levels: normalized to day 1 and saline control
Experimental: Human AAT protein levels in serum were monitored for 29 days. At the indicated times, blood samples were collected and assayed for hAAT by ELISA. Day 1 samples were collected prior to trigger administration. For mRNA analysis, 3-4 mice were euthanized at each of days 3, 8, 15, 22, and 29. For euthanized mice, cardiac stick were performed for serum isolation for AAT ELISA (200 μl serum). Half of the left lateral liver lobe was collected and snap-freeze in liquid nitrogen for RNA isolation. The remainder of the left lobes were embedded into paraffin blocks for PAS-D staining with hematoxylin as counter-stain. Serum hAAT levels in mice given AAT Duplex Pair SEQ ID NO: 5/6 were 95% reduced on day 8 and remained reduced to day 29, at which time they were 79% reduced. Mice given AAT Duplex Pair SEQ ID NO: 5/6 were euthanized at either day 3, 8, 15, 22 or 29. Mice given saline or Luciferase siRNA control (SEQ ID 7/8) were euthanized on day 29. Levels of hAAT mRNA in the livers were measured by RT-qPCR. The hAAT mRNA in mice given AAT Duplex Pair SEQ ID NO: 5/6 was reduced by 97% on day 3 and remained reduced on day 29, at which time levels were 56% reduced. The size of the globules and the area of the liver covered by globules was digitally quantitated from liver specimens stained with PAS-D. Duplex Pair SEQ ID NO: 5/6 treated mice had 70% smaller globules at day 15 and 62% smaller globules at day 29. The area of the liver covered with globules was 83% reduced on day 15 and 72% reduced on day 29 (FIG. 5).

## Duplex Pair SEQ ID NO: 5/6: double-stranded AAT RNAi agent: modified antisense strand SEQ ID NO: 5 annealed to Chol-TEG sense strand SEQ ID NO: 6 (antisense TGGAACUUGGUGAUGAUAUTT; sense UAUAUAUCAUCACCAAGUUCCAT; Chol-TEG on sense strand; chemical modifications; antisense strand of dsRNA; modified_base 7 /mod_base = “2′-3′ seco corresponding nucleotide”; modified_base 2,4,6,8,10,12,14,16,18 /mod_base = “2′-deoxy-2′-fluoro corresponding nucleoside”; modified_base 3,5,9,11,13,15,17,19 /mod_base = “2′-O-methyl corresponding nucleoside”; modified_base 21 /mod_base = “5′-phosphorothioate corresponding nucleotide”; sense strand of dsRNA; modified_base 2 /mod_base = “2′-hydroxy corresponding nucleoside”; modified_base 4,6,8,10,12,14,16,18,20,22 /mod_base = “2′-deoxy-2′-fluoro corresponding nucleoside”; …)
Day 8
  Serum hAAT levels reduced: 95%
Day 29
  Serum hAAT levels reduced: 79%
Single IV 0.5 mg/kg + 4 mg/kg MLP delivery polymer, Day 1
  Serum hAAT normalized to Day 1 and control: 1.00
Single IV 0.5 mg/kg + 4 mg/kg MLP delivery polymer, Day 3
  Serum hAAT normalized to Day 1 and control: 0.27 ± 0.02
Single IV 0.5 mg/kg + 4 mg/kg MLP delivery polymer, Day 8
  Serum hAAT normalized to Day 1 and control: 0.29 ± 0.09
Single IV 0.5 mg/kg + 4 mg/kg MLP delivery polymer, Day 15
  Serum hAAT normalized to Day 1 and control: 0.43 ± 0.01
Single IV 0.5 mg/kg + 4 mg/kg MLP delivery polymer, Day 22
  Serum hAAT normalized to Day 1 and control: 0.73 ± 0.03
Single IV 0.5 mg/kg + 4 mg/kg MLP delivery polymer, Day 29
  Serum hAAT normalized to Day 1 and control: 0.66 ± 0.05
Single IV 0.5 mg/kg + 4 mg/kg MLP delivery polymer, Day 35
  Serum hAAT normalized to Day 1 and control: 0.97 ± 0.02
Single IV 0.5 mg/kg + 4 mg/kg MLP delivery polymer, Day −3
  Serum hAAT normalized to Day 1 and control: 0.64 ± 0.10
Single IV 0.5 mg/kg + 8 mg/kg MLP delivery polymer, Day 1
  Serum hAAT normalized to Day 1 and control: 1.00
Single IV 0.5 mg/kg + 8 mg/kg MLP delivery polymer, Day 3
  Serum hAAT normalized to Day 1 and control: 0.20 ± 0.02
Single IV 0.5 mg/kg + 8 mg/kg MLP delivery polymer, Day 8
  Serum hAAT normalized to Day 1 and control: 0.10 ± 0.03
Single IV 0.5 mg/kg + 8 mg/kg MLP delivery polymer, Day 15
  Serum hAAT normalized to Day 1 and control: 0.19 ± 0.05
Single IV 0.5 mg/kg + 8 mg/kg MLP delivery polymer, Day 22
  Serum hAAT normalized to Day 1 and control: 0.55 ± 0.05
Single IV 0.5 mg/kg + 8 mg/kg MLP delivery polymer, Day 29
  Serum hAAT normalized to Day 1 and control: 0.49 ± 0.09
Single IV 0.5 mg/kg + 8 mg/kg MLP delivery polymer, Day 35
  Serum hAAT normalized to Day 1 and control: 0.71 ± 0.09
Single IV 0.5 mg/kg + 8 mg/kg MLP delivery polymer, Day −3
  Serum hAAT normalized to Day 1 and control: 0.71 ± 0.03
Single IV 2 mg/kg + 2 mg/kg MLP, day 1
  Normalized serum hAAT levels: 1.00
Single IV 2 mg/kg + 2 mg/kg MLP, day 8
  Normalized serum hAAT levels: 0.32 ± 0.24
Single IV 2 mg/kg + 2 mg/kg MLP, day 15
  Normalized serum hAAT levels: 0.88 ± 0.13
Single IV 2 mg/kg + 2 mg/kg MLP, day 20
  Normalized serum hAAT levels: 0.89 ± 0.18
Single IV 2 mg/kg + 2 mg/kg MLP, day 29
  Normalized serum hAAT levels: 1.01 ± 0.23
Single IV 2 mg/kg + 2 mg/kg MLP, day 36
  Normalized serum hAAT levels: 1.02 ± 0.15
Single IV 2 mg/kg + 2 mg/kg MLP, day −7
  Normalized serum hAAT levels: 0.91 ± 0.11
Single IV 2 mg/kg + 4 mg/kg MLP delivery polymer, Day 1
  Serum hAAT normalized to Day 1 and control: 1.00
Single IV 2 mg/kg + 4 mg/kg MLP delivery polymer, Day 3
  Serum hAAT normalized to Day 1 and control: 0.25 ± 0.03
Single IV 2 mg/kg + 4 mg/kg MLP delivery polymer, Day 8
  Serum hAAT normalized to Day 1 and control: 0.21 ± 0.07
Single IV 2 mg/kg + 4 mg/kg MLP delivery polymer, Day 15
  Serum hAAT normalized to Day 1 and control: 0.32 ± 0.06
Single IV 2 mg/kg + 4 mg/kg MLP delivery polymer, Day 22
  Serum hAAT normalized to Day 1 and control: 0.71 ± 0.14
Single IV 2 mg/kg + 4 mg/kg MLP delivery polymer, Day 29
  Serum hAAT normalized to Day 1 and control: 0.66 ± 0.06
Single IV 2 mg/kg + 4 mg/kg MLP delivery polymer, Day 35
  Serum hAAT normalized to Day 1 and control: 0.70 ± 0.09
Single IV 2 mg/kg + 4 mg/kg MLP delivery polymer, Day −3
  Serum hAAT normalized to Day 1 and control: 0.67 ± 0.02
Single IV 2 mg/kg + 4 mg/kg MLP, day 1
  Normalized serum hAAT levels: 1.00
Single IV 2 mg/kg + 4 mg/kg MLP, day 8
  Normalized serum hAAT levels: 0.07 ± 0.04
Single IV 2 mg/kg + 4 mg/kg MLP, day 15
  Normalized serum hAAT levels: 0.50 ± 0.19
Single IV 2 mg/kg + 4 mg/kg MLP, day 20
  Normalized serum hAAT levels: 0.67 ± 0.12
Single IV 2 mg/kg + 4 mg/kg MLP, day 29
  Normalized serum hAAT levels: 0.89 ± 0.06
Single IV 2 mg/kg + 4 mg/kg MLP, day 36
  Normalized serum hAAT levels: 0.94 ± 0.17
Single IV 2 mg/kg + 4 mg/kg MLP, day −7
  Normalized serum hAAT levels: 0.90 ± 0.15
Single IV 2 mg/kg + 8 mg/kg MLP delivery polymer, Day 1
  Serum hAAT normalized to Day 1 and control: 1.00
Single IV 2 mg/kg + 8 mg/kg MLP delivery polymer, Day 3
  Serum hAAT normalized to Day 1 and control: 0.17 ± 0.03
Single IV 2 mg/kg + 8 mg/kg MLP delivery polymer, Day 8
  Serum hAAT normalized to Day 1 and control: 0.05 ± 0.00
Single IV 2 mg/kg + 8 mg/kg MLP delivery polymer, Day 15
  Serum hAAT normalized to Day 1 and control: 0.10 ± 0.03
Single IV 2 mg/kg + 8 mg/kg MLP delivery polymer, Day 22
  Serum hAAT normalized to Day 1 and control: 0.22 ± 0.03
Single IV 2 mg/kg + 8 mg/kg MLP delivery polymer, Day 29
  Serum hAAT normalized to Day 1 and control: 0.40 ± 0.06
Single IV 2 mg/kg + 8 mg/kg MLP delivery polymer, Day 35
  Serum hAAT normalized to Day 1 and control: 0.63 ± 0.04
Single IV 2 mg/kg + 8 mg/kg MLP delivery polymer, Day −3
  Serum hAAT normalized to Day 1 and control: 0.53 ± 0.08
Single IV 4 mg/kg + 2 mg/kg MLP, day 1
  Normalized serum hAAT levels: 1.00
Single IV 4 mg/kg + 2 mg/kg MLP, day 8
  Normalized serum hAAT levels: 0.08 ± 0.03
Single IV 4 mg/kg + 2 mg/kg MLP, day 15
  Normalized serum hAAT levels: 0.68 ± 0.13
Single IV 4 mg/kg + 2 mg/kg MLP, day 20
  Normalized serum hAAT levels: 0.90 ± 0.15
Single IV 4 mg/kg + 2 mg/kg MLP, day 29
  Normalized serum hAAT levels: 1.07 ± 0.07
Single IV 4 mg/kg + 2 mg/kg MLP, day 36
  Normalized serum hAAT levels: 1.01 ± 0.08
Single IV 4 mg/kg + 2 mg/kg MLP, day −7
  Normalized serum hAAT levels: 1.27 ± 0.07
Single IV 4 mg/kg + 4 mg/kg MLP delivery polymer, Day 1
  Serum hAAT normalized to Day 1 and control: 1.00
Single IV 4 mg/kg + 4 mg/kg MLP delivery polymer, Day 3
  Serum hAAT normalized to Day 1 and control: 0.27 ± 0.03
Single IV 4 mg/kg + 4 mg/kg MLP delivery polymer, Day 8
  Serum hAAT normalized to Day 1 and control: 0.13 ± 0.02
Single IV 4 mg/kg + 4 mg/kg MLP delivery polymer, Day 15
  Serum hAAT normalized to Day 1 and control: 0.23 ± 0.07
Single IV 4 mg/kg + 4 mg/kg MLP delivery polymer, Day 22
  Serum hAAT normalized to Day 1 and control: 0.58 ± 0.09
Single IV 4 mg/kg + 4 mg/kg MLP delivery polymer, Day 29
  Serum hAAT normalized to Day 1 and control: 0.60 ± 0.08
Single IV 4 mg/kg + 4 mg/kg MLP delivery polymer, Day 35
  Serum hAAT normalized to Day 1 and control: 0.92 ± 0.22
Single IV 4 mg/kg + 4 mg/kg MLP delivery polymer, Day −3
  Serum hAAT normalized to Day 1 and control: 0.70 ± 0.17
Single IV 4 mg/kg + 4 mg/kg MLP, day 1
  Normalized serum hAAT levels: 1.00
